Assay results published in patent EP0031883A1, “Antimicrobial agent containing hydroxy butylimidazole derivatives” (BAYER AG, priority 1979, dated 1981).

Test system: Candida
Test: Antimicrobial in-vivo activity (oral) in mouse candidosis
Set-up: species or system Mäuse
Conditions: SPF-CF1 mice infected i.v. with 1 - 2 x 10^6 Candida cells; 50 - 100 mg/kg oral, one hour before and seven hours after infection; untreated controls about 5 % survival on day 5
Experimental: Mäuze vom Typ SPF-CF1 wurden intravenös mit 1 - 2 x 10^6 logaritmisch wachsenden Candida-Zellen, die in physiologischer Kochsalzlösung suspendiert waren, infiziert. Eine Stunde vor und sieben Stunden nach der Infektion werden die Tiere mit jeweils 50 - 100 mg/kg Körpergewicht der Präparate oral behandelt.
Urbehandelte Tiere starben 3 bis 6 Tage post infektionen. Die Überlebensrate am 5. Tag post infektionen betrug bei unbehandelten Kontrolltieren etwa 5 %.

SMILES	Wirkung
Clc1ccc(COC(Cn2ccnc2)c2ccc(Cl)cc2Cl)c(Cl)c1 (stereo not drawn) [Miconazol®, 1-[2,4-Dichlor-β-(2,4-dichlorbenzyloxy)-phenethyl]-imidazolnatrium]	keine Wirkung
CC(C)(C)C(O)(Cn1ccnc1)c1ccc(-c2ccc(Cl)cc2)cc1 (centres unmarked) [Verbindung 2, 1-(4-p-Chlorbiphenylyl)-1-(tert.-butyl)-2-(imidazol-1-yl)-ethan-1-ol]	sehr gute Wirkung
